Where only a bound is given, the exact number is not on record here.

The target of this assay is T1, Dihydrofolate reductase (Homo sapiens, UniProt P00374).
T1 sequence (P00374 whole entry): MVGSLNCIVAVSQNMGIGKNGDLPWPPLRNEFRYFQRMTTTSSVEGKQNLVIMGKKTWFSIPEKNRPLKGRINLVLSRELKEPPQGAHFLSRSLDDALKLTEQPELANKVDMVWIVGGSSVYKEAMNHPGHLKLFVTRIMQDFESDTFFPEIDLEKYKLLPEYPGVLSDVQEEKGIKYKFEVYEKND
In words: Dihydrofolate Reductase (DHFR) Assay. To be noted: pH 7.4; 30 °C. How it is done:
DHFRs were assayed spectrophotometrically in the reaction buffer solution containing dihydrofolate. The reaction was initiated with an amount of enzyme yielding a change in optical density at 340 nm of 0.015/min.
The term IC50 denotes the concentration that gives 50% inhibition. A low value points to greater potency. In turn, `CCc1[nH]c2nc(N)[nH]c(=O)c2c1Sc1c(C)cccc1C` [2-amino-5-[(2,6-dimethylphenyl)sulfanyl]-6-ethyl-3H,4H,7H-pyrrolo[2,3-d]pyrimidin-4-one] registered an IC50 above 31 µM.

Take `CCc1[nH]c2nc(N)[nH]c(=O)c2c1Sc1ccc(Cl)c(Cl)c1` [2-amino-5-[(3,4-dichlorophenyl)sulfanyl]-6-ethyl-3H,4H,7H-pyrrolo[2,3-d]pyrimidin-4-one]: the IC50 was above 27 µM.

Regarding `CCc1[nH]c2nc(N)nc(O)c2c1Sc1cccc(Br)c1` [2-amino-5-[(3-bromophenyl)sulfanyl]-6-ethyl-3H,4H,7H-pyrrolo[2,3-d]pyrimidin-4-one], the IC50 was above 27 µM.

As for `CCc1[nH]c2nc(N)nc(O)c2c1Sc1cccc(Cl)c1` [2-amino-5-[(3-chlorophenyl)sulfanyl]-6-ethyl-3H,4H,7H-pyrrolo[2,3-d]pyrimidin-4-one], the concentration for half-maximal inhibition (IC50) is above 31 µM.

For `CCc1[nH]c2nc(N)nc(O)c2c1Sc1ccc(Br)cc1` [2-amino-5-[(4-bromophenyl)sulfanyl]-6-ethyl-3H,4H,7H-pyrrolo[2,3-d]pyrimidin-4-one], the IC50 is above 26 µM.

`CCc1[nH]c2nc(N)[nH]c(=O)c2c1Sc1cc(C(F)(F)F)cc(C(F)(F)F)c1` [2-amino-5-{[3,5-bis(trifluoromethyl)phenyl]sulfanyl}-6-ethyl-3H,4H,7H-pyrrolo[2,3-d]pyrimidin-4-one] displayed an IC50 above 24 µM.

The molecule `CCc1[nH]c2nc(N)nc(O)c2c1Sc1ccc(F)cc1` [2-amino-6-ethyl-5-[(4-fluorophenyl)sulfanyl]-3H,4H,7H-pyrrolo[2,3-d]pyrimidin-4-one] displayed an IC50 above 32 µM.

On to `CCc1[nH]c2nc(N)nc(O)c2c1Sc1ccc([N+](=O)[O-])cc1` [2-amino-6-ethyl-5-[(4-nitrophenyl)sulfanyl]-3H,4H,7H-pyrrolo[2,3-d]pyrimidin-4-one], for which the IC50 is above 29 µM.

The values above are taken from BindingDB's records for doi:10.1021/jm058276a (Duquesne University, 2006).
